Measured values reported in patent US20200017467A1, “NOVEL TRIAZOLE DERIVATIVES” (BAYER CROPSCIENCE AKTIENGESELLSCHAFT, priority 2017, published 2020).

Legend:
[1] = system: Sphaerotheca fuliginea; assay: In vivo preventive test on Sphaerotheca fuliginea (powdery mildew on cucurbits); conditions: Podosphaera fuliginea, 360 h; 500 ppm of active ingredient; gherkin, preventive spray, evaluated 15 days after inoculation; read-out: efficacy
Experimental: Example C: In Vivo Preventive Test on Sphaerotheca fuliginea (Powdery Mildew on Cucurbits) [table] The active ingredients were made soluble and homogenized in a mixture of dimethyl sulfoxide/acetone//Tween® 80 and then diluted in water to the desired concentration. Young plants of gherkin were treated by spraying the active ingredient prepared as described above. Control plants were treated only with an aqueous solution of acetone/dimethyl sulfoxide/Tween® 80. After 24 hours, the plants were contaminated by spraying the leaves with an aqueous suspension of Sphaerotheca fuliginea spores. The contaminated gherkin plants were incubated for 72 hours at 18° C. and at 100% relative humidity and then for 12 days at 20° C. and at 70-80% relative humidity. The test was evaluated 15 days after the inoculation. 0% means an efficacy which corresponds to that of the control plants while an efficacy of 100% means that no disease was observed.

[2] = system: Septoria tritici; assay: Example F-B: in vivo curative Septoria tritici test (wheat); conditions: Zymoseptoria tritici, 504 h, sprayed 48 hours after inoculation, evaluated 21 days after inoculation, read-out: Efficacy in % Example F-B
Experimental: Example F: In Vivo Septoria tritici Test (Wheat); Comparison of Pyridinyloxy-Pyridyl Compounds According to the Invention Vs. Compounds Known from WO-A 2010/146116 [table] To produce a suitable preparation of active compound, 1 part by weight of active compound or active compound combination is mixed with the stated amounts of solvent and emulsifier, and the concentrate is diluted with water to the desired concentration. Example F-B: In Vivo Curative Septoria tritici Test (Wheat) To test for curative activity, young plants are inoculated with a spore suspension of Septoria tritici and remain for 48 hours in an incubation cabinet at a temperature of approximately 20° C. and a relative atmospheric humidity of approximately 100%. 48 hours after the incubation, the plants are sprayed with the preparation of active compound or active compound combination at the stated rate of application. After application the plants remain for 60 hours at a temperature of approximately 15° C. in a translucent incubation cabinet at a relative atmospheric humidity of approximately 100%. Afterwards, the plants are placed in the greenhouse at a temperature of approximately 15° C. and a relative atmospheric humidity of approximately 80%. The test is evaluated 21 days after the inoculation. 0% means an efficacy which corresponds to that of the untreated control, while an efficacy of 100% means that no disease is observed.

[3] = system: Septoria tritici; assay: Example F-C: in vivo 5 days preventive Septoria tritici test (wheat); conditions: Zymoseptoria tritici, 504 h, inoculated 5 days after spraying, evaluated 21 days after inoculation, read-out: Efficacy in % Example F-C
Experimental: Example F: In Vivo Septoria tritici Test (Wheat); Comparison of Pyridinyloxy-Pyridyl Compounds According to the Invention Vs. Compounds Known from WO-A 2010/146116 [table] To produce a suitable preparation of active compound, 1 part by weight of active compound or active compound combination is mixed with the stated amounts of solvent and emulsifier, and the concentrate is diluted with water to the desired concentration. Example F-C: In Vivo 5 Days Preventive Septoria tritici Test (Wheat) To test for preventive and long-lasting activity, young plants are sprayed with a preparation of active compound or active compound combination at the stated rate of application. After the spray coating has been dried, the plants are placed in the greenhouse at a temperature of approximately 15° C. and a relative atmospheric humidity of approximately 80%. 5 days later the plants are sprayed with a spore suspension of Septoria tritici. The plants remain for 48 hours in an incubation cabinet at approximately 20° C. and a relative atmospheric humidity of approximately 100% and afterwards for 60 hours at approximately 15° C. in a translucent incubation cabinet at a relative atmospheric humidity of approximately 100%. Then the plants are placed in the greenhouse at a temperature of approximately 15° C. and a relative atmospheric humidity of approximately 80%. The test is evaluated 21 days after the inoculation. 0% means an efficacy which corresponds to that of the untreated control, while an efficacy of 100% means that no disease is observed.

CC(O)(Cn1cncn1)c1ccc(Oc2ccc(Br)nc2)nc1C(F)(F)F (centres unmarked) [I-01, 2-[6-[(6-bromo-3-pyridyl)oxy]-2-(trifluoromethyl)-3-pyridyl]-1-(1,2,4-triazol-1-yl)propan-2-ol]
pest or weed control at 500 ppm [1]: 90 to 100%
pest or weed control at 500 ppm [2]: 93%
pest or weed control at 500 ppm [3]: 100%

CC(O)(Cn1cncn1)c1ccc(Oc2ccc(C(F)(F)F)nc2)nc1C(F)(F)F (centres unmarked) [I-02, 1-(1,2,4-triazol-1-yl)-2-[2-(trifluoromethyl)-6-[[6-(trifluoromethyl)-3-pyridyl]oxy]-3-pyridyl]propan-2-ol]
pest or weed control at 500 ppm [1]: 90 to 100%
pest or weed control at 500 ppm [2]: 100%
pest or weed control at 500 ppm [3]: 100%

CC(O)(Cn1cncn1)c1cnc(Oc2ccc(C(F)(F)F)nc2)cc1C(F)(F)F (centres unmarked) [I-04]
pest or weed control at 500 ppm [1]: 90 to 100%
pest or weed control at 500 ppm [2]: 100%

CC(O)(Cn1cncn1)c1ccc(Oc2ccc(Cl)nc2)nc1C(F)(F)F (centres unmarked) [I-05]
pest or weed control at 500 ppm [1]: 90 to 100%
pest or weed control at 500 ppm [2]: 100%
pest or weed control at 500 ppm [3]: 63%

CC(O)(Cn1cncn1)c1cnc(Oc2ccc(Cl)nc2)cc1C(F)(F)F (centres unmarked) [I-06, 2-[6-[(6-chloro-3-pyridyl)oxy]-4-(trifluoromethyl)-3-pyridyl]-1-(1,2,4-triazol-1-yl)propan-2-ol]
pest or weed control at 500 ppm [1]: 90 to 100%
pest or weed control at 500 ppm [2]: 100%
pest or weed control at 500 ppm [3]: 88%

CC(O)(Cn1cncn1)c1cnc(Oc2ccc(Br)nc2)cc1C(F)(F)F (centres unmarked) [I-07]
pest or weed control at 500 ppm [1]: 90 to 100%
pest or weed control at 500 ppm [2]: 70%
pest or weed control at 500 ppm [3]: 100%

OC(Cn1cncn1)c1ccc(Oc2ccc(C(F)(F)F)nc2)nc1C(F)(F)F (centres unmarked) [I-09]
pest or weed control at 500 ppm [1]: 90 to 100%
pest or weed control at 500 ppm [2]: 86%
pest or weed control at 500 ppm [3]: 100%

OC(Cn1cncn1)c1cnc(Oc2ccc(Br)nc2)cc1C(F)(F)F (centres unmarked) [I-13]
pest or weed control at 500 ppm [1]: 90 to 100%
pest or weed control at 500 ppm [2]: 60%
pest or weed control at 500 ppm [3]: 100%
